# Earlier results, collected in US8071763B2, “Methods for treatment of nocturia” (Daiichi Sankyo Company, Limited, priority 2002, dated 2011).
# Read-outs that look alike come from different tables or passages of the source.
# Assays:
# nocturia [1] = conditions: 100 mg suppository, open trial, 15 patients; cited from earlier work
# nocturia [2] = conditions: one patient; suppository administered as antipyretics; cited from earlier work
smiles,measurement,setting,value
COc1ccc2c(c1)c(CC(=O)O)c(C)n2C(=O)c1ccc(Cl)cc1 [indomethacin],Effect on nocturia,nocturia [1],improved nocturia in all 15 patients
same,Effect on nocturia,nocturia [2],nocturia was improved
